Laboratory results published in PubChem BioAssay AID1963966 (Molecular Pharmacology Branch, DTP, NCI, 2024).

System: 935938-334-R-J1-PDC spheroids with HUVEC/MSC, viability
Assay: Anticancer human tumor 935938-334-R-J1-PDC patient-derived small intestine adenocarcinoma cell line growth inhibition [PI3K]
Conditions: for IC50: curve of first compound; for viability, T/C: stronger effect = lower value
Outline: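 Targeted small molecules plus PI3K inhibitors, half-log dose series from Cmax (default top 10 microM), were applied to heterotypic spheroids of cancer cells with HUVEC and MSCs. Viability indicated growth inhibition.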
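Further: compound exposure lasted seven days before viability was read.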
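Wherever viability, T/C is given: percent of vehicle DMSO treated spheroid viability so 100% = untreated.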

CNC(=O)c1ccc(N2C(=S)N(c3ccc(C#N)c(C(F)(F)F)c3)C(=O)C2(C)C)cc1F + COc1c(OCCCN2CCOCC2)ccc2c3n(c(=NC(=O)c4cnc(N)nc4)nc12)CCN3
IC50 (second compound 0.00316 µM): > 10000 nM | IC50 (second compound 0.01 µM): > 10000 nM | IC50 (second compound 0.0316 µM): > 10000 nM | IC50 (second compound 0.1 µM): 69.4 nM | IC50 (second compound 0.316 µM): < 31.6 nM | IC50 (second compound 1 µM): < 31.6 nM | viability, T/C (second compound 0.00316 µM, first compound 0.0316 µM): 89.8% | viability, T/C (second compound 0.00316 µM, first compound 0.1 µM): 76.3% | viability, T/C (second compound 0.00316 µM, first compound 0.316 µM): 74.8% | viability, T/C (second compound 0.00316 µM, first compound 1 µM): 66.8% | viability, T/C (second compound 0.00316 µM, first compound 3.16 µM): 103% | viability, T/C (second compound 0.00316 µM, first compound 10 µM): 93.4% | viability, T/C (second compound 0.01 µM, first compound 0.0316 µM): 87.6% | viability, T/C (second compound 0.01 µM, first compound 0.1 µM): 96.8% | viability, T/C (second compound 0.01 µM, first compound 0.316 µM): 102% | viability, T/C (second compound 0.01 µM, first compound 1 µM): 85.8% | viability, T/C (second compound 0.01 µM, first compound 3.16 µM): 104% | viability, T/C (second compound 0.01 µM, first compound 10 µM): 92.7% | viability, T/C (second compound 0.0316 µM, first compound 0.0316 µM): 84.5% | viability, T/C (second compound 0.0316 µM, first compound 0.1 µM): 85.3% | viability, T/C (second compound 0.0316 µM, first compound 0.316 µM): 82.1% | viability, T/C (second compound 0.0316 µM, first compound 1 µM): 81% | viability, T/C (second compound 0.0316 µM, first compound 3.16 µM): 76.6% | viability, T/C (second compound 0.0316 µM, first compound 10 µM): 66.6% | viability, T/C (second compound 0.1 µM, first compound 0.0316 µM): 62.9% | viability, T/C (second compound 0.1 µM, first compound 0.1 µM): 42.6% | viability, T/C (second compound 0.1 µM, first compound 0.316 µM): 49.1% | viability, T/C (second compound 0.1 µM, first compound 1 µM): 44.5% | viability, T/C (second compound 0.1 µM, first compound 3.16 µM): 42.9% | viability, T/C (second compound 0.1 µM, first compound 10 µM): 40.2% | viability, T/C (second compound 0.316 µM, first compound 0.0316 µM): 43.3% | viability, T/C (second compound 0.316 µM, first compound 0.1 µM): 29.4% | viability, T/C (second compound 0.316 µM, first compound 0.316 µM): 31.3% | viability, T/C (second compound 0.316 µM, first compound 1 µM): 32.4% | viability, T/C (second compound 0.316 µM, first compound 3.16 µM): 36.7% | viability, T/C (second compound 0.316 µM, first compound 10 µM): 24.4% | viability, T/C (second compound 1 µM, first compound 0.0316 µM): 34.9% | viability, T/C (second compound 1 µM, first compound 0.1 µM): 30.6% | viability, T/C (second compound 1 µM, first compound 0.316 µM): 38.3% | viability, T/C (second compound 1 µM, first compound 1 µM): 34.2% | viability, T/C (second compound 1 µM, first compound 3.16 µM): 29.3% | viability, T/C (second compound 1 µM, first compound 10 µM): 24.8%

Cn1cnc2c(F)c(Nc3ccc(Br)cc3Cl)c(C(=O)NOCCO)cc21 + COc1c(OCCCN2CCOCC2)ccc2c3n(c(=NC(=O)c4cnc(N)nc4)nc12)CCN3
IC50 (second compound 0.00316 µM): 60.9 nM | IC50 (second compound 0.01 µM): 56.6 nM | IC50 (second compound 0.0316 µM): 40.3 nM | IC50 (second compound 0.1 µM): < 9.49 nM | IC50 (second compound 0.316 µM): < 9.49 nM | IC50 (second compound 1 µM): < 9.49 nM | viability, T/C (second compound 0.00316 µM, first compound 0.00949 µM): 70.9% | viability, T/C (second compound 0.00316 µM, first compound 0.03 µM): 55.8% | viability, T/C (second compound 0.00316 µM, first compound 0.0949 µM): 49.6% | viability, T/C (second compound 0.00316 µM, first compound 0.3 µM): 30.8% | viability, T/C (second compound 0.00316 µM, first compound 0.949 µM): 30.9% | viability, T/C (second compound 0.00316 µM, first compound 3 µM): 23.4% | viability, T/C (second compound 0.01 µM, first compound 0.00949 µM): 76.8% | viability, T/C (second compound 0.01 µM, first compound 0.03 µM): 63.6% | viability, T/C (second compound 0.01 µM, first compound 0.0949 µM): 36.4% | viability, T/C (second compound 0.01 µM, first compound 0.3 µM): 32.6% | viability, T/C (second compound 0.01 µM, first compound 0.949 µM): 22.6% | viability, T/C (second compound 0.01 µM, first compound 3 µM): 18.4% | viability, T/C (second compound 0.0316 µM, first compound 0.00949 µM): 64.5% | viability, T/C (second compound 0.0316 µM, first compound 0.03 µM): 51.7% | viability, T/C (second compound 0.0316 µM, first compound 0.0949 µM): 42.4% | viability, T/C (second compound 0.0316 µM, first compound 0.3 µM): 27% | viability, T/C (second compound 0.0316 µM, first compound 0.949 µM): 22.2% | viability, T/C (second compound 0.0316 µM, first compound 3 µM): 20.3% | viability, T/C (second compound 0.1 µM, first compound 0.00949 µM): 31.4% | viability, T/C (second compound 0.1 µM, first compound 0.03 µM): 29.9% | viability, T/C (second compound 0.1 µM, first compound 0.0949 µM): 20.9% | viability, T/C (second compound 0.1 µM, first compound 0.3 µM): 16.2% | viability, T/C (second compound 0.1 µM, first compound 0.949 µM): 17.3% | viability, T/C (second compound 0.1 µM, first compound 3 µM): 14.1% | viability, T/C (second compound 0.316 µM, first compound 0.00949 µM): 26.8% | viability, T/C (second compound 0.316 µM, first compound 0.03 µM): 21.4% | viability, T/C (second compound 0.316 µM, first compound 0.0949 µM): 19.4% | viability, T/C (second compound 0.316 µM, first compound 0.3 µM): 17.7% | viability, T/C (second compound 0.316 µM, first compound 0.949 µM): 18.9% | viability, T/C (second compound 0.316 µM, first compound 3 µM): 15% | viability, T/C (second compound 1 µM, first compound 0.00949 µM): 29% | viability, T/C (second compound 1 µM, first compound 0.03 µM): 24.4% | viability, T/C (second compound 1 µM, first compound 0.0949 µM): 21.4% | viability, T/C (second compound 1 µM, first compound 0.3 µM): 21.3% | viability, T/C (second compound 1 µM, first compound 0.949 µM): 17.9% | viability, T/C (second compound 1 µM, first compound 3 µM): 14%
